Experimental data: patent publication US20110152313A1 (MACQUARIE UNIVERSITY, priority 2008, published 2011)

How the values were obtained:
Assay in all cases: kinase binding screen (kinase-tagged T7 phage, qPCR), % Ctrl
DYRK2 = molecular target: T1, DYRK2 (Homo sapiens, UniProt Q92630)
T1 sequence (Q92630 1-601): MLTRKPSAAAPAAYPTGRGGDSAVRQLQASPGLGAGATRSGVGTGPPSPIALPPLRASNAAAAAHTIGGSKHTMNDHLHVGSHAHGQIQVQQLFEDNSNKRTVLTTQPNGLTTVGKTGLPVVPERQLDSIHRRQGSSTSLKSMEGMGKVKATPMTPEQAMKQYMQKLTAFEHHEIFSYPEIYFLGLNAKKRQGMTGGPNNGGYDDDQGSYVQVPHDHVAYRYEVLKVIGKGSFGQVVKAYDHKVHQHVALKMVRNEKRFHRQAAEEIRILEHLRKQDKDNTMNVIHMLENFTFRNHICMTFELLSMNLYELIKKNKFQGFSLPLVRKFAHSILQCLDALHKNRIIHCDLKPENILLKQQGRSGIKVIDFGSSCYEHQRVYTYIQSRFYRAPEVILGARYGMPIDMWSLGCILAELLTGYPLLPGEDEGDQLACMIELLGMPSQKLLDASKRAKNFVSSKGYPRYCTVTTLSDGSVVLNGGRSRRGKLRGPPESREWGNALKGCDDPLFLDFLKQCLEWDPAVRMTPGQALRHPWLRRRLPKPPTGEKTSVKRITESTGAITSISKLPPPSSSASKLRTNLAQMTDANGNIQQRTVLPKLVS
Description: (§1) Percentage kinase inhibition at a set concentration was performed by methods well known in the prior art (Fabian, M. A. et al. Nat. Biotechnol. 2005, 23, 329; Karaman et al. (2008) Nat. Biotechnol. […], 26, 127). Briefly, kinase-tagged T7 phage strains were grown in parallel in 24-well blocks in an E. coli host derived from the BL21 strain. E. coli were grown to log-phase and infected with T7 phage from a frozen stock (multiplicity of infection=0.4) and incubated with shaking at 32° C. until lysis (90-150 minutes). The lysates were centrifuged (6,000×g) and filtered (0.2 μm) to remove cell debris. […] The liganded beads were blocked with excess biotin and washed with blocking buffer (SeaBlock (Pierce); 1% BSA, 0.05% Tween 20, 1 mM DTT) to remove unbound ligand and to reduce non-specific phage binding. […] Test compounds were prepared as 40× stocks in 100% DMSO and directly diluted into the assay. All reactions were performed in polypropylene 384-well plates in a final volume of 0.04 mL. […] The kinase concentration in the eluates was measured by qPCR.

CAMK1G = CAMK1G (Homo sapiens, UniProt Q96NX5)
Description: as §1

YSK4 = molecular target: T2, YSK4 (Homo sapiens, UniProt Q56UN5)
T2 sequence (Q56UN5 1-1328): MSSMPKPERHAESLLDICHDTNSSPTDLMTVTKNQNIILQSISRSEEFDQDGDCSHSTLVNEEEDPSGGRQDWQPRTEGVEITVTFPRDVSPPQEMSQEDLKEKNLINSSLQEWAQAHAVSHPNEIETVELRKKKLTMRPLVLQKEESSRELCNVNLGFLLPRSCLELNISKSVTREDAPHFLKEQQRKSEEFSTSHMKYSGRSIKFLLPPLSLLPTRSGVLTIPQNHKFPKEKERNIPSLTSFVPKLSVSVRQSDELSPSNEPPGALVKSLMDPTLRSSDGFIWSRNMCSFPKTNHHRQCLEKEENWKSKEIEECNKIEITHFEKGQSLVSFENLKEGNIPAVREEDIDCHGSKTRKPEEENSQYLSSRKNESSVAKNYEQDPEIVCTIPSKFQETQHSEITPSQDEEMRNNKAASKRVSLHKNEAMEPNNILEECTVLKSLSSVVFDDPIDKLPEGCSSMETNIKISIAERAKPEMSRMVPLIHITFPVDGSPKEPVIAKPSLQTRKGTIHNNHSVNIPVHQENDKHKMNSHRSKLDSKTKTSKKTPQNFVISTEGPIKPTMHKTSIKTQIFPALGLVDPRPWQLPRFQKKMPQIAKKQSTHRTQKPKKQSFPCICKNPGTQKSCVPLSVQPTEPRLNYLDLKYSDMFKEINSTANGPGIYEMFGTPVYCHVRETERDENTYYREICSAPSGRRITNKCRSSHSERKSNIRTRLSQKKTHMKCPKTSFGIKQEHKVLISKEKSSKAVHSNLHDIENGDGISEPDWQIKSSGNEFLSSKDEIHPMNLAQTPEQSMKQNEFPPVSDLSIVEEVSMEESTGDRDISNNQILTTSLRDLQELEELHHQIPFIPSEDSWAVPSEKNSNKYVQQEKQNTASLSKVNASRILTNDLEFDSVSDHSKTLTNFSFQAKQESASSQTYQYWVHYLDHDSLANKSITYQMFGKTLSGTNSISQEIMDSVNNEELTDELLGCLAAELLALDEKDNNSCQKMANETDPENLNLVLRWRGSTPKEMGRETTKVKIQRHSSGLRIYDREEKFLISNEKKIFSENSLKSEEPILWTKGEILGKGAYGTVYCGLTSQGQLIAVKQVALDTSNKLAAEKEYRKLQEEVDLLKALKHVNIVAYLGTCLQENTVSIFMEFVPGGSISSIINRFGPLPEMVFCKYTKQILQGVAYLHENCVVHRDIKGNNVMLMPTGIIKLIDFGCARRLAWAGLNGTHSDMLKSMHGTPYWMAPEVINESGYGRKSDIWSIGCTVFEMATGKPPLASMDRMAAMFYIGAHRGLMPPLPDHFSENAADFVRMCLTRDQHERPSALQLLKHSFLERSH
Description: as §1

YANK2 = YANK2 (Homo sapiens, UniProt Q9NY57)
Description: as §1

SgK085 = molecular target: T3, SgK085 (Homo sapiens, UniProt Q86YV6)
T3 sequence (Q86YV6 1-388): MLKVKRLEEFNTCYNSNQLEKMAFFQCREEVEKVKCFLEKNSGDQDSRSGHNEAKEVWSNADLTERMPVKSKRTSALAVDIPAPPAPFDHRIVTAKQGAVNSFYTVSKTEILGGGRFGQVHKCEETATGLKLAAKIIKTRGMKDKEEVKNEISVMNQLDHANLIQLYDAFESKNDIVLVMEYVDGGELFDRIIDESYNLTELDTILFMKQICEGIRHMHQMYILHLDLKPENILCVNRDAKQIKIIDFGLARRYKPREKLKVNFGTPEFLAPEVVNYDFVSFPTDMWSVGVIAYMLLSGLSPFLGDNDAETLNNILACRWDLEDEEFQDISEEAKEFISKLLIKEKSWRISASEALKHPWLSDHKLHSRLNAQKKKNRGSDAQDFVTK
Description: as §1

ROCK2 = ROCK2 (Homo sapiens, UniProt O75116)
Description: as §1

YANK2, sequence (Q9NY57 whole entry): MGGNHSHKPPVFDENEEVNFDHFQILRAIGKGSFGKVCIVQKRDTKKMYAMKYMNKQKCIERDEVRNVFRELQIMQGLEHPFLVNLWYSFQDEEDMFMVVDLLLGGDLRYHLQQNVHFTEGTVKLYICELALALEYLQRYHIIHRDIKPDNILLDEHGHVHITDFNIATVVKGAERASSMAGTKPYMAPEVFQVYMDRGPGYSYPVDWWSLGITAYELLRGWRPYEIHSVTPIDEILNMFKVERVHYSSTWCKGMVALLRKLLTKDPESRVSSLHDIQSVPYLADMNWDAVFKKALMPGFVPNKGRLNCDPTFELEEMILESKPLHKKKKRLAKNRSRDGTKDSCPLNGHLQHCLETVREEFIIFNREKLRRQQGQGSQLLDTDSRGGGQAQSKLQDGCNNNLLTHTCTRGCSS
CAMK1G, sequence (Q96NX5 whole entry): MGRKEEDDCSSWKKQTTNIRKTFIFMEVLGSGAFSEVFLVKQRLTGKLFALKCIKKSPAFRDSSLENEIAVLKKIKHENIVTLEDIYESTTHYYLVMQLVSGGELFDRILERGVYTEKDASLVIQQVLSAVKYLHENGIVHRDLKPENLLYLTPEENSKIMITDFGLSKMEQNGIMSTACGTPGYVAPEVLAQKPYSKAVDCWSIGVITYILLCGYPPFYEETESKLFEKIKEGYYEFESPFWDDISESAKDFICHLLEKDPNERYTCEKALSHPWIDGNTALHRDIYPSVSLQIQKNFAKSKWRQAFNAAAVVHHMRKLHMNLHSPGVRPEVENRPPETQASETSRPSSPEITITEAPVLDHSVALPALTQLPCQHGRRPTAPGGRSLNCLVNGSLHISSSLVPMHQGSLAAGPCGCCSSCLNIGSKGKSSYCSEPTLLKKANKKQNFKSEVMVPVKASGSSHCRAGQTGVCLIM
ROCK2, sequence (O75116 whole entry, species assumed): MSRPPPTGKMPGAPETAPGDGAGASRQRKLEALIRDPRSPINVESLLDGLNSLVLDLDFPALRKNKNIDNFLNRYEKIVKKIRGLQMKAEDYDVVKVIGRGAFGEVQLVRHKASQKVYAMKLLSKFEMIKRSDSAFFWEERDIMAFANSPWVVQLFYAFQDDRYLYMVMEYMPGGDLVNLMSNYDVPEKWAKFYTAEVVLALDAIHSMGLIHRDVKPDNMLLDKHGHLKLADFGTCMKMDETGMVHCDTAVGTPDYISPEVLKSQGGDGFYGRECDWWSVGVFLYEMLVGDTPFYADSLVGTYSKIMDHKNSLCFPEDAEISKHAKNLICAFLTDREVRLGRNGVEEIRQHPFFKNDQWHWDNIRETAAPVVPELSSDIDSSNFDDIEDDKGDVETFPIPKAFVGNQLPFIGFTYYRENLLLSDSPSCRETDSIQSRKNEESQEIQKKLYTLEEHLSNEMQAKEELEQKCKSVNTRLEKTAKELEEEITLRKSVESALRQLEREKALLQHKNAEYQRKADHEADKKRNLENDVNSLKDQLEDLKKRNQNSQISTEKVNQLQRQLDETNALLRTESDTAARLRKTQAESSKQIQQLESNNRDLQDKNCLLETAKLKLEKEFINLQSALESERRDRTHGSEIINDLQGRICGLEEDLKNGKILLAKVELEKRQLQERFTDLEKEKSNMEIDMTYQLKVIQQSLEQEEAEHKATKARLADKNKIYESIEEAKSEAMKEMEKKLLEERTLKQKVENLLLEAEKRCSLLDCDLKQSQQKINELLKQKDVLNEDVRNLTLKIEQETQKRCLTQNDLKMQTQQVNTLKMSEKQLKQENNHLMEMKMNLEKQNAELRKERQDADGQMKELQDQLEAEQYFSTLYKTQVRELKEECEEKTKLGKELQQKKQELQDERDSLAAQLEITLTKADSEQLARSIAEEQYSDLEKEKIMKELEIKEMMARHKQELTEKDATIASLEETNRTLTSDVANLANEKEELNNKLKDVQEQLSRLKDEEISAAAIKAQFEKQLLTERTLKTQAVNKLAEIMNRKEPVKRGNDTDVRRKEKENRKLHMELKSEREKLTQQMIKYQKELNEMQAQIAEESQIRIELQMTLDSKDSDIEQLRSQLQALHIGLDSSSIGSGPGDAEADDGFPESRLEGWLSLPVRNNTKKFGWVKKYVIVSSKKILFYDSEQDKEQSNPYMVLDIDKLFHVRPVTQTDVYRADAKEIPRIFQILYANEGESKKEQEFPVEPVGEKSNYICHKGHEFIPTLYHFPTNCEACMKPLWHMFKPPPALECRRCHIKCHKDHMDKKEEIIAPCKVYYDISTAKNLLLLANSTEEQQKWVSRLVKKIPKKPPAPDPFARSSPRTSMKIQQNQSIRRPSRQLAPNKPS

SMILES | remaining activity at 1 µM (DYRK2) [%] | remaining activity at 1 µM (CAMK1G) [%] | remaining activity at 1 µM (YSK4) [%] | remaining activity at 1 µM (YANK2) [%] | remaining activity at 1 µM (SgK085) [%] | remaining activity at 1 µM (ROCK2) [%] | remaining activity at 10 µM (DYRK2; 10 μM) [%] | remaining activity at 10 µM (CAMK1G; 10 μM) [%] | remaining activity at 10 µM (YSK4; 10 μM) [%] | remaining activity at 10 µM (YANK2; 10 μM) [%] | remaining activity at 10 µM (SgK085; 10 μM) [%] | remaining activity at 10 µM (ROCK2; 10 μM) [%]
Nc1nc2c(-c3ccccn3)nccc2[nH]1 [drawing 35, 4-(pyrid-2-yl)-1H-imidazo[4,5-c]pyridin-2-amine] | 41 | 43 | 16 | 89 | 43 | 45 |  |  |  |  |  | 
Nc1nc2c(-c3cc(Br)c(Br)[nH]3)nccc2[nH]1 [Ageladine A, ageladine A, reference compound] | 35 | 100 | 56 | 93 | 89 | 65 | 4.4 | 96 | 5.1 | 87 | 90 | 38
Nc1nc2c(-c3cnc4ccccc4c3)nccc2[nH]1 [drawing 36, 4-(quinolin-3-yl)-1H-imidazo[4,5-c]pyridin-2-amine] | 56 | 100 | 82 | 50 | 92 | 100 |  |  |  |  |  | 
